Reference: the supplement of paper PMC8882468

Experiments:
Test in all cases: CTG-3D luminescence at 96 h relative to day-0 seeding control (ratio to day 0); higher = more growth / less cytotoxicity; PDxO 3D drug screen (set 2), 96 h, CTG-3D normalised to day-0 seeding control.
HCI-008 = tested on: HCI-008 (organoid from a HER2-enriched breast cancer xenograft)
HCI-017.E2 = tested on: HCI-017.E2 (organoid from an ER-positive breast cancer xenograft)
HCI-011.E2 = tested on: HCI-011.E2 (organoid from an ER-positive breast cancer xenograft)
HCI-025 = tested on: HCI-025 (organoid from a breast cancer xenograft)
HCI-016 = tested on: HCI-016 (organoid from a triple-negative breast cancer xenograft)

CC(=O)c1c(C)c2cnc(Nc3ccc(N4CCNCC4)cn3)nc2n(C2CCCC2)c1=O [palbociclib]
CTG-3D luminescence at 96 h
Settings	12.5 pM	0.00025 µM	0.005 µM	0.1 µM	1 µM	10 µM	100 µM	625 fM
HCI-008, days in culture: 325	1.14	1.96	2.03	2.74	3.58	2.05	0.962	1.8
HCI-008, days in culture: 340	0.654	3.19	1.76	2.01	2.37	–	1.18	1.13
HCI-008, days in culture: 354	1.29	1.41	2.34	1	1.11	0.979	1.21	0.693
HCI-008, days in culture: 382	1.83	1.31	1.55	1.83	1.16	1.66	0.974	1.59
HCI-011.E2, days in culture: 74	2.34	2.11	2.43	2.43	1.74	2.51	1.52	2.09
HCI-016, days in culture: 305	2.74	2.8	2.81	3.01	2.9	1.83	2.12	3.73
HCI-016, days in culture: 327	0.926	1.04	1.84	1.67	1.15	1.59	0.478	1.3
HCI-016, days in culture: 341	2.28	1.75	1.74	2.25	1.67	1.9	0.71	2.48
HCI-016, days in culture: 397	2	2.56	1.48	2.7	2.38	1.99	0.831	2.9
HCI-017.E2, days in culture: 85	2.34	1.47	2.15	2.41	1.66	1.8	1.58	1.96
HCI-025, days in culture: 175	1.84	2.51	1.75	1.97	2.37	2.28	1.24	1.97
HCI-025, days in culture: 189	2.77	1.41	2.23	1.9	1.78	1.42	0.673	3.4
HCI-025, days in culture: 212	2.24	1.43	1.94	1.29	0.809	2.39	2.52	2.45
HCI-025, days in culture: 224	1.84	1.83	1.88	1.26	2	2.17	1.17	1.33

CTG-3D luminescence at 96 h
Settings	12.5 pM	0.00025 µM	0.005 µM	0.1 µM	1 µM	10 µM	100 µM	625 fM
HCI-011.E2	1.41	1.8	1.29	1.53	1.49	1.92	1.44	1.86
HCI-017.E2	2	2.45	2.1	2.37	1.98	2.346	1.25	2.23

Cc1c(CN2CCN(C(=O)[C@H](C)O)CC2)sc2c(N3CCOCC3)nc(-c3cnc(N)nc3)nc12 [apitolisib]
CTG-3D luminescence at 96 h
Settings	12.5 pM	0.00025 µM	0.005 µM	0.1 µM	1 µM	10 µM	100 µM	625 fM
HCI-008, days in culture: 325	1.41	2	1.65	1.78	0.742	0.507	0.435	1.77
HCI-008, days in culture: 340	1.4	1.81	1.5	0.702	0.415	–	0.351	1.52
HCI-008, days in culture: 354	1.55	1.16	2.04	1.34	0.285	0.344	0.491	1.32
HCI-008, days in culture: 382	1.87	1.72	0.949	0.687	0.13	0.258	0.331	1.49
HCI-011.E2, days in culture: 74	2.37	2.08	1.85	1.24	0.177	0.0892	0.218	2.23
HCI-016, days in culture: 305	2.28	2.68	3.05	3.53	0.981	0.764	0.885	4.57
HCI-016, days in culture: 327	1.06	1.19	1.2	1.18	0.573	0.82	0.546	1.62
HCI-016, days in culture: 341	2.23	1.71	1.7	1.65	0.831	0.768	0.618	2.56
HCI-016, days in culture: 397	1.26	1.89	1.41	1.48	0.778	0.916	0.378	1.87
HCI-017.E2, days in culture: 85	2.14	1.73	1.52	1.36	0.359	0.278	0.161	2.09
HCI-025, days in culture: 175	1.49	1.72	1.53	1.89	0.73	0.467	0.419	1.16
HCI-025, days in culture: 189	1.77	1.49	1.66	1.41	0.518	0.179	0.121	2.67
HCI-025, days in culture: 212	2.2	3.51	2.34	0.777	0.534	0.218	0.139	0.788
HCI-025, days in culture: 224	2.45	2.02	2.09	1.35	0.679	0.351	0.267	2

CTG-3D luminescence at 96 h
Settings	12.5 pM	0.00025 µM	0.005 µM	0.1 µM	1 µM	10 µM	100 µM	625 fM
HCI-011.E2	1.62	1.71	1.3004	0.978	0.232	0.17	0.377	1.89
HCI-017.E2	2.28	2.54	2.21	1.43	0.397	0.399	0.223	2.43

CC(C)n1nc(-c2ccc3oc(N)nc3c2)c2c(N)ncnc21 [sapanisertib]
CTG-3D luminescence at 96 h
Settings	12.5 pM	0.00025 µM	0.005 µM	0.1 µM	1 µM	10 µM	100 µM	625 fM
HCI-008, days in culture: 325	1.51	1.96	1.64	0.99	0.826	0.32	0.112	1.88
HCI-008, days in culture: 340	0.668	2.32	1.51	0.592	0.593	–	0.0751	0.965
HCI-008, days in culture: 354	1.18	1.2	2.84	0.615	0.502	0.229	0.122	1.31
HCI-008, days in culture: 382	1.81	1.93	1.22	0.751	0.282	0.304	0.0604	1.7
HCI-011.E2, days in culture: 74	2.73	2.43	1.98	0.488	0.142	0.167	0.138	2.6
HCI-016, days in culture: 305	2.57	3.24	2.48	1.62	0.527	0.566	0.455	3.26
HCI-016, days in culture: 327	1.38	1.23	1.37	0.784	0.464	0.679	0.258	1.7
HCI-016, days in culture: 341	2.37	1.72	2.04	1.14	0.566	0.673	0.378	2.96
HCI-016, days in culture: 397	1.83	2.36	1.47	1.2	0.701	0.688	0.324	2.37
HCI-017.E2, days in culture: 85	2.14	1.78	2.08	0.908	0.515	0.249	0.14	2.37
HCI-025, days in culture: 175	1.69	1.73	1.62	0.506	0.401	0.466	0.283	2.01
HCI-025, days in culture: 189	2.16	2.67	1.63	0.619	0.34	0.244	0.0962	3.34
HCI-025, days in culture: 212	1.26	1.57	2.69	0.0755	0.227	0.183	0.277	1.33
HCI-025, days in culture: 224	2.13	1.98	1.91	0.411	0.423	0.26	0.17	1.86

CTG-3D luminescence at 96 h
Settings	12.5 pM	0.00025 µM	0.005 µM	0.1 µM	1 µM	10 µM	100 µM	625 fM
HCI-011.E2	1.55	1.65	0.974	0.413	0.187	0.228	0.277	1.96
HCI-017.E2	2.17	2.44	1.79	0.877	0.558	0.399	0.125	2.58
